Target: T1, human GnRH receptor (Homo sapiens, UniProt P30968)
T1 sequence (P30968 1-328): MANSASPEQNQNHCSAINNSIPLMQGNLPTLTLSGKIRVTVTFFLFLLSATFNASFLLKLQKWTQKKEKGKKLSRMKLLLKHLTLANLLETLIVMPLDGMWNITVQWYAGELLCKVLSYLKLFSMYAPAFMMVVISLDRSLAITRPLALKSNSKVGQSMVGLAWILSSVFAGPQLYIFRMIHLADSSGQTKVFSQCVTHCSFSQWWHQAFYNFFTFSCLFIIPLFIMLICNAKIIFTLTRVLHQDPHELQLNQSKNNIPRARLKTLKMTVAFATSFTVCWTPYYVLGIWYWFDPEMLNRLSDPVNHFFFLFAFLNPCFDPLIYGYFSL
Test: IP-One HTRF assay with buserelin (at EC80) stimulation
Type: cell-based
Settings: CHO cells stably expressing human GnRH receptor, read-out: Potency in IP-One HTRF assay, given as IC50
Source text: 2.3. IP-One HTRF® Assay By using homogenous time-resolved fluorescence resonance energy transfer (HTRF), the generation of one component of the GnRH—R signalling cascade can be measured. After stimulation of CHO cells stably expressing human GnRH receptor (established by Prof. Thomas Gudermann, currently University of Marburg, Germany; supplied as frozen cell aliquots by Cell Culture Services, Hamburg, Germany) with the EC80 of the GnRH agonist buserelin, Gq protein-coupled receptor signalling cascade is activated resulting in PLC-dependent cleavage of PIP2 to Inositol-1,4,5-triphosphate (IP3) and Diacylglycerol. The second messenger IP3 is degraded intracellularly to myo-inositol. Inhibition of the final degradation step from Inositol-1-phosphate (IP1) to myo-inositol by addition of lithium chloride leads to accumulation of IP1 in the cells. In cell lysates, IP1 can be detected via an antibody-based HTRF detection technology, where IP1 can displace the FRET acceptor IP1-d2 from binding by Terbium-labelled anti-IP1 antibody as donor resulting in a signal decrease. Compounds were tested for their capability of inhibiting GnRH—R activation by buserelin. For all IP-One HTRF® assays reagents of Cisbio Bioassays (IP-One Tb Jumbo kit, #62IPAPEJ; Cisbio Bioassays, Bagnols sur Cèze Cedex, France) were used.
For the assay, frozen cell aliquots were thawed and a cell suspension (3.33×10^6 cells/mL) containing IP1-d2 (dilution 1:40) was prepared and incubated at 37° C. After 1 h 3 μl of the cell suspension were added to 50 nl of a 100-fold concentrated solution of the test compound in DMSO pre-dispensed in a well of a white low-volume 384-well microtiter plate (Greiner Bio-One, Frickenhausen, Germany). […] Plates were incubated for 1 h at 37° C. and 5% carbon dioxide before the cells were lysed by adding 3 μl Terbium-labelled anti-IP1 antibody (1:40) diluted in Conjugate & Lysis buffer as supplied with the kit. After an incubation for 1 h at 22° C. to enable complete cell lysis and antibody binding to free IP1 or IP1-d2, plates were measured in an HTRF reader, e.g. a RUBYstar, PHERAstar (both BMG Labtechnologies, Offenburg, Germany) or a Viewlux (PerkinElmer LAS, Rodgau-Jügesheim, Germany).
From the fluorescence emissions at 665 nm (FRET) and at 620 nm (background signal of Terbium-antibody), the ratio (emission at 665 nm divided by emission at 620 nm) was calculated and the data were normalized (reaction without test compound=0% inhibition; all other assay components except agonist=100% inhibition). On the same microtiter plate, compounds were tested at 10 different concentrations in the range of 20 μM to 1 nM (20 μM, 6.7 μM, 2.2 μM, 0.74 μM, 0.25 μM, 82 nM, 27 nM, 9.2 nM, 3.1 nM and 1 nM; dilution series prepared before the assay at the level of the 100-fold conc. stock solutions by serial 1:3 dilutions in 100% DMSO) in duplicate values for each concentration. By using an in-house software, the IC50 values were calculated by a 4 parameter fit.

SMILES: COc1cccc(S(=O)(=O)N2c3ccc(C(=O)NCc4ccc(F)cc4Cl)cc3C3(CCS(=O)(=O)CC3)C2C2CC2)c1 (stereo not drawn) [Example 46, N-(2-chloro-4-fluorobenzyl)-2-cyclopropyl-1-[(3-methoxyphenyl)sulfonyl]-1,2,2′,3′,5′,6′-hexahydrospiro[indole-3,4′-thiopyran]-5-carboxamide 1′,1′-dioxide]
- IC50: 0.081 µM

SMILES: CC1N(S(=O)(=O)c2ccc(F)cc2)c2ccc(C(=O)NCc3ncccc3Cl)cc2C12CCOCC2 (single isomer, unassigned) [Example 1.2, N-[(3-Chloropyridin-2-yl)methyl]-1-[(4-fluorophenyl)sulfonyl]-2-methyl-1,2,2′,3′,5′,6′-hexahydrospiro[indole-3,4′-pyran]-5-carboxamide]
- IC50: 19.5 µM

SMILES: CC1N(S(=O)(=O)c2ccc(F)cc2)c2ccc(C(=O)NCc3ccccc3Cl)cc2C12CCOCC2 (single isomer, unassigned) [Example 2.1, N-(2-chlorobenzyl)-1-[(4-fluorophenyl)sulfonyl]-2-methyl-1,2,2′,3′,5′,6′-hexahydrospiro[indole-3,4′-pyran]-5-carboxamide]
- IC50: 9.32 µM

SMILES: CC1N(S(=O)(=O)c2ccc(F)cc2)c2ccc(C(=O)NCc3ccccc3C#N)cc2C12CCOCC2 (stereo not drawn) [Example 8, N-(2-cyanobenzyl)-1-[(4-fluorophenyl)sulfonyl]-2-methyl-1,2,2′,3′,5′,6′-hexahydrospiro[indole-3,4′-pyran]-5-carboxamide]
- IC50: 2.51 µM

SMILES: O=C(NC1CCOc2ccccc21)c1ccc2c(c1)C1(CCS(=O)(=O)CC1)C(C1CC1)N2S(=O)(=O)c1ccc(F)cc1 (stereo not drawn) [Example 33, 2-cyclopropyl-N-(3,4-dihydro-2H-chromen-4-yl)-1-[(4-fluorophenyl)sulfonyl]-1,2,2′,3′,5′,6′-hexahydrospiro[indole-3,4′-thiopyran]-5-carboxamide 1′,1′-dioxide]
- IC50: 0.958 µM

SMILES: O=C(NCC1CCCC1)c1ccc2c(c1)C1(CCS(=O)(=O)CC1)C(C1CC1)N2S(=O)(=O)c1ccc(F)cc1 (stereo not drawn) [Example 38, N-(cyclopentylmethyl)-2-cyclopropyl-1-[(4-fluorophenyl)sulfonyl]-1,2,2′,3′,5′,6′-hexahydrospiro[indole-3,4′-thiopyran]-5-carboxamide 1′,1′-dioxide]
- IC50: 0.136 µM

SMILES: O=C(Nc1ccc2c(c1)C1(CCS(=O)(=O)CC1)C(C1CC1)N2S(=O)(=O)c1ccc(F)cc1)C1CCCC1 (stereo not drawn) [Example 99, N-{2-cyclopropyl-1-[(4-fluorophenyl)sulfonyl]-1′,1′-dioxido-1,2,2′,3′,5′,6′-hexahydrospiro[indole-3,4′-thiopyran]-5-yl}cyclopentanecarboxamide]
- IC50: 0.3 µM

SMILES: O=C(NCc1ncc(F)cc1Cl)c1ccc2c(c1)C1(CCS(=O)(=O)CC1)C(C1CC1)N2S(=O)(=O)c1ccc(F)cc1 (single isomer, unassigned) [Example 17.2, N-[(3-chloro-5-fluoropyridin-2-yl)methyl]-2-cyclopropyl-1-[(4-fluorophenyl)sulfonyl]-1,2,2′,3′,5′,6′-hexahydrospiro[indole-3,4′-thiopyran]-5-carboxamide 1′,1′-dioxide]
- IC50: 2.48 µM

SMILES: O=C(Nc1ccc2c(c1)C1(CCS(=O)(=O)CC1)C(C1CC1)N2S(=O)(=O)c1ccc(F)cc1)C1CCCCC1 (stereo not drawn) [Example 98, N-{2-cyclopropyl-1-[(4-fluorophenyl)sulfonyl]-1′,1′-dioxido-1,2,2′,3′,5′,6′-hexahydrospiro[indole-3,4′-thiopyran]-5-yl}cyclohexanecarboxamide]
- IC50: 0.039 µM

SMILES: O=C(NCc1ccccc1Cl)c1ccc2c(c1)C1(CC[S+]([O-])CC1)C(C1CC1)N2S(=O)(=O)c1ccc(F)cc1 (stereo not drawn) [Example 13, N-(2-Chlorobenzyl)-2-cyclopropyl-1-[(4-fluorophenyl)sulfonyl]-1,2,2′,3′,5′,6′-hexahydrospiro[indole-3,4′-thiopyran]-5-carboxamide 1′-oxide]
- IC50: 0.03 µM

SMILES: O=C(NCc1ccccc1C(F)(F)F)c1ccc2c(c1)C1(CCS(=O)(=O)CC1)C(C1CC1)N2S(=O)(=O)c1ccc(F)cc1 (single isomer, unassigned) [Example 32.2, 2-cyclopropyl-1-[(4-fluorophenyl)sulfonyl]-N-[2-(trifluoromethyl)benzyl]-1,2,2′,3′,5′,6′-hexahydrospiro[indole-3,4′-thiopyran]-5-carboxamide 1′,1′-dioxide]
- IC50: 1.26 µM

SMILES: COc1cccc(S(=O)(=O)N2c3ccc(C(=O)NCc4ncccc4F)cc3C3(CCS(=O)(=O)CC3)C2C2CC2)c1 (stereo not drawn) [Example 53, 2-cyclopropyl-N-[(3-fluoropyridin-2-yl)methyl]-1-[(3-methoxyphenyl)sulfonyl]-1,2,2′,3′,5′,6′-hexahydrospiro[indole-3,4′-thiopyran]-5-carboxamide 1′,1′-dioxide]
- IC50: 0.617 µM

SMILES: COc1cccc(S(=O)(=O)N2c3ccc(C(=O)NCc4ncccc4Cl)cc3C3(CCS(=O)(=O)CC3)C2C2CC2)c1 (single isomer, unassigned) [Example 41.2, N-[(3-chloropyridin-2-yl)methyl]-2-cyclopropyl-1-[(3-methoxyphenyl)sulfonyl]-1,2,2′,3′,5′,6′-hexahydrospiro[indole-3,4′-thiopyran]-5-carboxamide 1′,1′-dioxide]
- IC50: 0.428 µM

SMILES: COc1cccc(S(=O)(=O)N2c3ccc(C(=O)Nc4cccc(S(=O)(=O)N(C)C)c4)cc3C3(CCS(=O)(=O)CC3)C2C2CC2)c1 (single isomer, unassigned) [Example 43.2, 2-cyclopropyl-N-[3-(N,N-dimethylsulfamoyl)phenyl]-1-[(3-methoxyphenyl)sulfonyl]-1,2,2′,3′,5′,6′-hexahydrospiro[indole-3,4′-thiopyran]-5-carboxamide 1′,1′-dioxide]
- IC50: 0.036 µM

SMILES: CC1N(S(=O)(=O)c2ccc(F)cc2)c2ccc(C(=O)NC(C)(C)c3ccc(F)cc3Cl)cc2C12CCS(=O)(=O)CC2 (stereo not drawn) [Example 27, N-(2-chloro-4-fluoro-α,α-dimethylbenzyl)-1-[(4-fluorophenyl)sulfonyl]-2-methyl-1,2,2′,3′,5′,6′-hexahydrospiro[indole-3,4′-thiopyran]-5-carboxamide 1′,1′-dioxide]
- IC50: 9.02 µM

SMILES: O=C(Nc1cncc(Cl)c1)c1ccc2c(c1)C1(CCS(=O)(=O)CC1)C(C1CC1)N2S(=O)(=O)c1cccc(OC(F)F)c1 (stereo not drawn) [Example 88, N-(5-chloropyridin-3-yl)-2-cyclopropyl-1-{[3-(difluoromethoxy)phenyl]sulfonyl}-1,2,2′,3′,5′,6′-hexahydrospiro[indole-3,4′-thiopyran]-5-carboxamide 1′,1′-dioxide]
- IC50: 0.262 µM

SMILES: CN(C)C(=NS(=O)(=O)c1cccc(NC(=O)c2ccc3c(c2)C2(CCS(=O)(=O)CC2)C(C2CC2)N3S(=O)(=O)c2ccc(F)cc2)c1)N(C)C (single isomer, unassigned) [Example 64.1, N-(3-{[bis(dimethylamino)methylidene]sulfamoyl}phenyl)-2-cyclopropyl-1-[(4-fluorophenyl)sulfonyl]-1,2,2′,3′,5′,6′-hexahydrospiro[indole-3,4′-thiopyran]-5-carboxamide 1′,1′-dioxide]
- IC50: 0.0046 µM

SMILES: NC(=O)c1cccc(NC(=O)c2ccc3c(c2)C2(CCS(=O)(=O)CC2)C(C2CC2)N3S(=O)(=O)c2ccc(F)cc2)c1 (single isomer, unassigned) [Example 51.1, N-(3-carbamoylphenyl)-2-cyclopropyl-1-[(4-fluorophenyl)sulfonyl]-1,2,2′,3′,5′,6′-hexahydrospiro[indole-3,4′-thiopyran]-5-carboxamide 1′,1′-dioxide]
- IC50: 0.08 µM
